Test results taken from US8022091B2, “Triazole derivative” (Taisho Pharmaceutical Co., Ltd., priority 2006, dated 2011).

Key:
human Edg-1 (S1P1) = target: T1, human Edg-1 (S1P1) (Homo sapiens, UniProt P21453); experiment: S1P1 binding assay: inhibition of [33P]-S1P binding to membrane fraction of HEK-293 cells transferred with the human Edg-1 (S1P1) gene; conditions: for inhibition at 10 µM: test compound 10 μM, inhibition of [33P]-S1P binding, membrane fraction; for IC50: [33P]-S1P 0.1 nM, human Edg-1 (S1P1) HEK-293 membrane fraction, 1 h at 30° C., read-out: IC50 (concentration at which binding in the absence of the test compound was inhibited by 50%)
T1 construct: expressed in transfected cells; host or cells: HEK-293
In short: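 With 0.1 nM [33P]-S1P and compound (10^−5M single point, or a concentration range for IC50) in 0.1% DMSO, membrane fractions from human Edg-1-expressing HEK-293 cells were treated for one hour at 30° C in 20 mM Tris-HCl pH 7.4 with NaF, deoxypyridoxine and BSA. Bound label was measured after filtration, with untransfected-cell background subtracted.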

T1 sequence (P21453 whole entry): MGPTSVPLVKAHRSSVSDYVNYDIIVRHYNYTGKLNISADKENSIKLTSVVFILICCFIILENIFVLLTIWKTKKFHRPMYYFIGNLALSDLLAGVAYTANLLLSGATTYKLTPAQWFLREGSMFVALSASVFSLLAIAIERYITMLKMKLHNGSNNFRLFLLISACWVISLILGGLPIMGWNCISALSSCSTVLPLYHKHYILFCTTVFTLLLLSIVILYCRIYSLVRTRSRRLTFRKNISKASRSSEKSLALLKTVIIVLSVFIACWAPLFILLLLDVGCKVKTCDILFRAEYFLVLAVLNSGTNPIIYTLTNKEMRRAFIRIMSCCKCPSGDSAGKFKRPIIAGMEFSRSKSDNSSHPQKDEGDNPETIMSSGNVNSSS

| Compound | inhibition at 10 µM (human Edg-1 (S1P1)) | IC50 (human Edg-1 (S1P1)) | melting point |
| --- | --- | --- | --- |
| CCn1c(Oc2cccc(N3CCN(C)CC3)c2)nnc1[C@@H](C)NS(=O)(=O)c1cnn(-c2ccccc2)c1C [Compound 637] | 50.6% |  |  |
| CCn1c(Oc2cccc(N3CCN(C)CC3)c2)nnc1[C@@H](C)NS(=O)(=O)c1ccc(-c2ccnc(SC)n2)s1 [Compound 640] | 59.5% |  |  |
| CCn1c(Oc2cccc(N3CCN(C)CC3)c2)nnc1[C@@H](C)NS(=O)(=O)c1cc(C)sc1C [Compound 641] | 85.2% |  |  |
| CCn1c(Oc2cccc(N3CCN(C)CC3)c2)nnc1[C@@H](C)NS(=O)(=O)c1ccc(OC)cc1OC [Compound 642] | 85.5% |  |  |
| CCn1c(Oc2cccc(N3CCN(C)CC3)c2)nnc1[C@@H](C)NS(=O)(=O)c1ccc(C(F)(F)F)cc1Cl [Compound 644] | 93% |  |  |
| CCn1c(Oc2cccc(N3CCN(C)CC3)c2)nnc1[C@@H](C)NS(=O)(=O)c1cccc(C(C)=O)c1 [Compound 647] | 99% |  |  |
| CCn1c(Oc2cccc(N3CCN(C)CC3)c2)nnc1[C@@H](C)NS(=O)(=O)c1ccc(F)c2ccccc12 [Compound 648] | 108% |  |  |
| CCOc1ccc(NC(C)=O)cc1S(=O)(=O)N[C@H](C)c1nnc(Oc2cccc(N3CCN(C)CC3)c2)n1CC [Compound 649] | 64.7% |  |  |
| CCc1ccc(OC)c(S(=O)(=O)N[C@H](C)c2nnc(Oc3cccc(N4CCN(C)CC4)c3)n2CC)c1 [Compound 652] | 91.9% |  |  |
| CCn1c(Oc2cccc(N3CCN(C)CC3)c2)nnc1[C@@H](C)NS(=O)(=O)c1ccc(Cl)c(S(N)(=O)=O)c1 [Compound 654] | 71.7% |  |  |
| CCn1c(Oc2cccc(N3CCN(C)CC3)c2)nnc1[C@@H](C)NS(=O)(=O)c1ccc(Br)c(C(F)(F)F)c1 [Compound 657] | 94.9% |  |  |
| CCn1c(Oc2cccc(N3CCN(C)CC3)c2)nnc1[C@@H](C)NS(=O)(=O)c1cc(Br)cc(C(F)(F)F)c1 [Compound 658] | 80.4% |  |  |
| CCn1c(Oc2cccc(N3CCN(C)CC3)c2)nnc1[C@@H](C)NS(=O)(=O)c1csc2ccccc12 [Compound 662] | 95.4% |  |  |
| CCn1c(Oc2cccc(N3CCN(C)CC3)c2)nnc1[C@@H](C)NS(=O)(=O)c1ccc2cc(C)ccc2c1 [Compound 668] | 98.6% |  |  |
| CCC(NS(=O)(=O)c1ccc2c(Cl)cccc2c1)c1nnc(Oc2cccc(N3CCN(C)CC3)c2)n1CC (centres unmarked) [Compound 671] | 101% | ≤ 10 nM |  |
| CCn1c(Oc2cccc(N3CCN(C)CC3)c2)nnc1[C@@H](C)NS(=O)(=O)c1ccc2c(c1)CCO2 [Compound 672] | 103% |  |  |
| CCn1c(Oc2cccc(N3CCN(C)CC3)c2)nnc1[C@@H](C)NS(=O)(=O)c1ccc2c(c1)CCC(C)(C)O2 [Compound 673] | 62% |  |  |
| CCn1c(Oc2cccc(N3CCN(C)CC3)c2)nnc1[C@@H](C)NS(=O)(=O)c1ccc2c(c1)OCCCO2 [Compound 674] | 97% |  |  |
| CCn1c(Oc2cccc(N3CCN(C)CC3)c2)nnc1[C@@H](C)NS(=O)(=O)c1ccc2c(c1)OCO2 [Compound 675] | 96.6% |  |  |
| CCn1c(Oc2cccc(N3CCN(C)CC3)c2)nnc1[C@@H](C)NS(=O)(=O)c1ccc2c(c1)C(C)(C)CCC2(C)C [Compound 676] | 92.6% |  |  |
| CCn1c(Oc2cccc(N3CCN(C)CC3)c2)nnc1[C@@H](C)NS(=O)(=O)c1ccc2c(c1)CCN2C(C)=O [Compound 677] | 60.8% |  |  |
| CCn1c(Oc2cccc(N3CCN(C)CC3)c2)nnc1[C@@H](C)NS(=O)(=O)c1ccc2c(c1)CCC2 [Compound 678] | 97.4% | 10.2 nM |  |
| CCn1c(Oc2cccc(N3CCN(C)CC3)c2)nnc1[C@@H](C)NS(=O)(=O)c1ccc2oc(=O)ccc2c1 [Compound 679] | 104% |  |  |
| CCn1c(Oc2ccc(F)cc2)nnc1[C@@H](C)N(CC(=O)O)S(=O)(=O)c1ccc(Cl)c(Cl)c1 [Compound 684] |  |  | 169.5 to 171.5 °C |
| CCn1c(Oc2ccc(F)cc2)nnc1C(NS(=O)(=O)c1ccc(Cl)c(Cl)c1)C(F)(F)F (centres unmarked) [Compound 687, 3,4-Dichloro-N-[1-[4-ethyl-5-(4-fluorophenoxy)-4H-[1,2,4]triazol-3-yl]-2,2,2-trifluoroethyl]-benzenesulfonamide] | 80.1% |  |  |
| CCn1c(Oc2ccc(F)cc2)nnc1[C@@H](CF)NS(=O)(=O)c1ccc(Cl)c(Cl)c1 [Compound 689] | 92.7% |  |  |
| CCn1c(Oc2cccc(N3CCN(C(C)=O)CC3)c2)nnc1[C@@H](C)NS(=O)(=O)c1ccc2c(Cl)cccc2c1 [Compound 698] |  | 2.3 nM |  |
